Data set [1] has as its system MCF-7/PTX-R. As to the kind of experiment: IC50 in PTX-resistant MCF-7 cells (Example 9). The data set is classed as cell-based. Conditions: Homo sapiens, MCF7. The text has this:
(§1) Accordingly, MCF-7 cells resistant to PTX were generated by exposure to increasing PTX concentrations (Table 9).

Data set [2] can be described thus: Size, zeta potential, % EE of singly or dually loaded PLA72K-PEG-PPG-PEG12.5K NPs. The data set is classed as physicochemical.
Experimental: PTX loaded nanoparticles were produced using an emulsion-solvent evaporation method. Briefly, 50 mg of copolymer in 5 ml acetonitrile (ACN) and 5 mg of PTX (LC Laboratories, Boston, Mass., US) were dissolved in 100 ul ACN and added to 50 mg of PLA-PEG-PPG-PEG solution in 5 ml ACN. The resulting mixture was then added into a 20 ml aqueous phase composed of F127 in distilled water and stirred at room temperature for 6 to 8 hours to facilitate solvent evaporation and nanoparticle stabilization. PTX and NuBCP-9 peptide loaded PLA-PEG-PPG-PEG (50 mg) nanoparticles were prepared by double emulsion process. Paclitaxel was added into the dissolved PLA-PEG-PPG-PEG copolymer followed by immediate addition of peptide with a slight sonication. […]
Nanoparticles were filtered through an Amikon 30-kDa ultrafilter (Millipore, USA) and washed twice with MQ water to remove free drug/dye. […] The filtrate was collected and analyzed for free NuBCP-9 peptide by a Micro-BCA Kit (Pierce Chemicals, USA) and measured on EPOCH microplate reader (BioTek, US) at 590 nm. Similarly, free paclitaxel was measured through high performance liquid chromatography HPLC (Perkin Elmer, US) assay method, using C18 column with acetonitrile, Water, Methanol (60:35:5 volume ratio) as mobile phase. Encapsulation efficiency (EE %) of NuBCP-9 peptide/PTX was determined using the following formula:
The subject of data set [3] is breast cancer. Particulars: first-line treatment of locally recurrent or metastatic breast cancer; cited from earlier work.
For data set [4], the system named is MCF-7/PTX-R cells. The experiment in a line: Apoptosis in PTX-resistant cells (Annexin V/PI, FLOW, caspase-3 and PARP cleavage). The data set is classed as cell-based, Human. Conditions: 100 nM, 48 h. The protocol:
Cells were then stained with Annexin V/PI and analyzed by FACS. […] (see Example 9).
Analysis was performed by immunoblotting with anti-caspase-3 CF, anti-PARP CF and anti-β-Actin antibodies (see Example 9).
as §1

Data set [5] deals with MCF-7 breast cancer cells. The experiment in a line: In vitro cytotoxicity, XTT cell proliferation assay. The data set is classed as cell-based. Particulars: Homo sapiens, MCF7, 72 hrs. The protocol:
(§2) D. In vitro cytotoxicity analysis: […] The cells were maintained at 37° C. and 5% CO2 atmosphere for the duration of experiments. Exponentially growing cancer cells were plated into a 96-well plate at a seeding density of 3000 cells per well and incubated for 24 hrs.

Data set [6] has as its system MDA-MB231 breast cancer cells. The data set is described as above. Particulars: Homo sapiens, MDA-MB-231, 72 hrs. The data set is classed as cell-based. The protocol: as §2
Data set [7] concerns Ehrlich tumor. As to the kind of experiment: Antitumor activity in syngeneic Ehrlich tumor model (Example 8). The data set is classed as in vivo, Balb/c mice. Particulars: 21 days treatment. The procedure: H. Analysis of antitumor activity: Mice Ehrlich tumor cells were injected subcutaneously in the hind limb of syngeneic Balb/c mice (17-22 g). Tumor bearing mice (˜150 mm^3) were divided into 9 groups (6 mice/group) and treated weekly or biweekly intraperitoneally (i.p.) with different formulations for 21 days. Tumor volume was determined by vernier caliper and calculated using the formula (A×B^2)×0.5, where A and B are the longest and shortest tumor diameters, respectively. From each group, 1 mouse was sacrificed on day 7, 14, and 21 for harvesting of tumor for histopathologal examination. The tumors were fixed in 10% formalin/saline and embedded in paraffin. Five-micrometer sections were stained with hematoxylin and eosin for further immunohistochemistry, TUNNEL and Ki67 assay. Statistical analysis of tumor volumes was performed by one-way ANOVA using Graph pad prism. Survival of the mice was determined by the Kaplan-Meier method using Prism 4.0 software (Graph Pad Software).
The in vivo antitumor efficacy and systemic toxicity of the dual-drug and single drug loaded nanoparticles were evaluated on EAT tumor model Balb/c mice. […]

Data set [8] can be described thus: Isoelectric point of peptide. The data set is classed as physicochemical.

Turning to `CC(=O)O[C@H]1C(=O)[C@@]2(C)[C@H]([C@H](OC(=O)c3ccccc3)[C@]3(O)C[C@H](OC(=O)[C@H](O)[C@@H](NC(=O)c4ccccc4)c4ccccc4)C(C)=C1C3(C)C)[C@]1(OC(C)=O)CO[C@@H]1C[C@@H]2O` [PTX, Paclitaxel], the IC50 in data set [1] came to 1.75 µM; in data set [5], 38 nM; in data set [6], 46 nM. For the same compound, in data set [2] (encapsulation efficiency), the “EE % of PTX” value is recorded as 87%. In data set [3], the progression-free survival was 11 months. Besides, the induction of apoptosis entry in data set [4] is “not”. Besides, the “Ki67 expression in tumor tissues” value in data set [7] is given as “high”.
For the compound “FSRSLHSLL (listed as Homo sapiens) [NuBCP-9]”, in data set [2] (encapsulation efficiency of NuBCP-9), the “EE % of Peptide” value is 64.5%. In data set [8], this compound returned an isoelectric point of about 7.2 pH.

(Values after patent US20220175688A1, “POLYMERIC NANOPARTICLES” (Hillstream BioPharma, Inc., priority 2015, published 2022).)
